Data reported in PubChem BioAssay AID2060600 (Molecular Pharmacology Branch, DTP, NCI, 2025).

Tested on: 996289-038-R-J1-PDC complex spheroid viability
Test: Anticancer human tumor 996289-038-R-J1-PDC patient-derived colon adenocarcinoma cell line growth inhibition [CLK]
Settings: for IC50: curve of first compound; for viability, T/C: stronger effect = lower value
Description: A high-throughput screen of multi-cell type tumor spheroids was designed to identify active combinations of […] and targeted small molecules. Complex spheroids include a stromal component modeled by human endothelial cells (HUVEC) and fibroblasts modeled by human mesenchymal stem cells (MSCs). The concentration ranges selected for each drug and investigational agent were based upon clinically achievable concentrations if the clinical Cmax of the agent was known.
Compounds. The drugs and investigational agents: cirtuvivint (SM08502; NSC835563), CC-671 (NSC850746), vemurafenib (NSC761431), tapotoclax (NSC804041), sotorasib (NSC818433), adagrasib (NSC831453), MRTX-1133 (NSC836407), BAY2416964 (NSC825713), copanlisib (NSC816437), inavolisib (NSC800729), abemaciclib (NSC768073), osimertinib (NSC779217), entinostat (NSC756642), eltanexor (KPT-8602, NSC794443), venetoclax (NSC766270), ceralasertib (NSC777638), bortezomib (NSC756655), olaparib (NSC753686), talazoparib (NSC767125), alisertib (NSC759677), peposertib (NSC802822), gemcitabine (NSC613327), 5-fluorouracil (NSC19893), SN-38 (NSC673596), oxaliplatin (NSC266046), paclitaxel (NSC125973), and doxorubicin (NSC123127), were obtained from the National Cancer Institute (NCI) Developmental Therapeutics Program Chemical Repository. The FDA-approved anticancer drug set is available from the Developmental Therapeutics Program at https://dtp.cancer.gov/organization/dscb/obtaining/available plates.htm. […] The stock solutions were prepared in dimethyl sulfoxide (DMSO, Sigma-Aldrich, St. Louis, MO, cat. D2650), except for the platinum complexes which were prepared in saline (Quality Biological, Gaithersburg, MD, cat. 114-055-101), at 800-fold the tested concentration and stored at -70 degrees C prior to their use. All drugs and investigational agents were tested over a range starting from a high concentration at or near the clinical Cmax and decreasing in half-log increments. If the clinical Cmax for an agent had not been determined, the highest concentration tested was 10 microM.
Cell Culture. All cells were maintained in an incubator at 37 degrees C and 5% CO2 with 95% humidity. The PDC lines were cultured according to standard operating procedures established by the NCI PDMR. Briefly, all PDCs were thawed and cultured in Matrigel-coated flasks prepared with a working solution of 1X Ham's F-12 nutrient mix, without supplementation (Invitrogen, Waltham, MA, cat. 11765054), 100 U/mL penicillin-streptomycin (Invitrogen, cat. 15140122), and 2.5% Matrigel (Corning Inc., Corning, NY, cat. 354248) for the first three passages. The 947758-054-R-J2-PDC line was cultured in 6B/Colon 1A media, which includes advanced DMEM/F-12 (Thermo Fisher Scientific, cat. 12634028), 10 mM HEPES (Thermo Fisher Scientific, cat. 15630080), 1X GlutaMAX supplement (Thermo Fisher Scientific, cat. 35050061), 0.1 mg/mL primocin (InvivoGen, cat. ant-pm-2), 10% defined fetal bovine serum, heat inactivated (HyClone Laboratories Inc., cat. SH30070.03HI), 1.25 mM N-Acetyl-L-cysteine (Sigma-Aldrich, cat. A9165), 10 mM nicotinamide (Sigma-Aldrich, cat. N0636), 1X B-27 supplement (Thermo Fisher Scientific, cat. 17504044), 1X N-2 supplement (Thermo Fisher Scientific, cat. 17502048), and 10 microM Y-27632 dihydrochloride (Tocris Bioscience, cat. 1254). The 876862-298-R-J1-PDC was cultured in 6E media, which includes all 6B/Colon 1A media components plus 50% L-WRN conditioned media (ATCC, cat. CRL-3276), 50 ng/mL recombinant human EGF recombinant protein (hEGF; Thermo Fisher Scientific, cat. PHG0311), 10 ng/mL recombinant human fibroblast growth factor 10 (hGFG-10; PeproTech, cat. 100-26), 1 ng/mL recombinant human fibroblast growth factor 2 (hFGF-2; PeproTech, cat. 100-18B), and 1 µM prostaglandin E2 (PGE2; Tocris, cat. 2296). The 227483-062-R1-J1-PDC line was cultured in Panc media, containing all 6E components except hFGF-2, with the addition of 500 nM SB-431542 (Selleckchem, cat. S1067) and 10 nM gastrin (Tocris, cat. 3006). […]
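Also: spheroids exposed to the agents for 7 days before readout.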

With `CCCS(=O)(=O)Nc1ccc(F)c(C(=O)c2c[nH]c3ncc(-c4ccc(Cl)cc4)cc23)c1F` + CN1CCN(c2cc(C(=O)Nc3cc4cc(-c5cnn(C)c5)ccc4cn3)ccn2)CC1 the IC50 (second compound 0.0316 µM) was > 10 µM, the IC50 (second compound 0.1 µM) was > 10 µM and the IC50 (second compound 0.316 µM) was 6.17 µM. For the same compound, the IC50 (second compound 1 µM) was < 0.0316 µM, the IC50 (second compound 3.16 µM) was < 0.0316 µM and the IC50 (second compound 10 µM) was < 0.0316 µM. The viability, T/C (second compound 0.0316 µM, first compound 0.0316 µM) was 92.3%, the viability, T/C (second compound 0.0316 µM, first compound 0.1 µM) was 87.7% and the viability, T/C (second compound 0.0316 µM, first compound 0.316 µM) was 95%. It also gave a viability, T/C (second compound 0.0316 µM, first compound 1 µM) of 98%, a viability, T/C (second compound 0.0316 µM, first compound 3.16 µM) of 98.6% and a viability, T/C (second compound 0.0316 µM, first compound 10 µM) of 68.1%. The viability, T/C (second compound 0.1 µM, first compound 0.0316 µM) was 94.2%, the viability, T/C (second compound 0.1 µM, first compound 0.1 µM) was 82% and the viability, T/C (second compound 0.1 µM, first compound 0.316 µM) was 90.1%. It also gave a viability, T/C (second compound 0.1 µM, first compound 1 µM) of 92%, a viability, T/C (second compound 0.1 µM, first compound 3.16 µM) of 81.3% and a viability, T/C (second compound 0.1 µM, first compound 10 µM) of 57.3%. For the same compound, the viability, T/C (second compound 0.316 µM, first compound 0.0316 µM) was 67.4%, the viability, T/C (second compound 0.316 µM, first compound 0.1 µM) was 70.3% and the viability, T/C (second compound 0.316 µM, first compound 0.316 µM) was 70.9%. It also gave a viability, T/C (second compound 0.316 µM, first compound 1 µM) of 76.6%, a viability, T/C (second compound 0.316 µM, first compound 3.16 µM) of 65.7% and a viability, T/C (second compound 0.316 µM, first compound 10 µM) of 37.9%. It also gave a viability, T/C (second compound 1 µM, first compound 0.0316 µM) of 5.57%, a viability, T/C (second compound 1 µM, first compound 0.1 µM) of 6.02% and a viability, T/C (second compound 1 µM, first compound 0.316 µM) of 6.22%. For the same compound, the viability, T/C (second compound 1 µM, first compound 1 µM) was 7.67%, the viability, T/C (second compound 1 µM, first compound 3.16 µM) was 5.81% and the viability, T/C (second compound 1 µM, first compound 10 µM) was 5.48%. For the same compound, the viability, T/C (second compound 3.16 µM, first compound 0.0316 µM) was 1.49%, the viability, T/C (second compound 3.16 µM, first compound 0.1 µM) was 1.01% and the viability, T/C (second compound 3.16 µM, first compound 0.316 µM) was 1.22%. It also gave a viability, T/C (second compound 3.16 µM, first compound 1 µM) of 1.3%, a viability, T/C (second compound 3.16 µM, first compound 3.16 µM) of 2.36% and a viability, T/C (second compound 3.16 µM, first compound 10 µM) of 1.6%. The viability, T/C (second compound 10 µM, first compound 0.0316 µM) was 1.91%, the viability, T/C (second compound 10 µM, first compound 0.1 µM) was 0.63% and the viability, T/C (second compound 10 µM, first compound 0.316 µM) was 1.71%. For the same compound, the viability, T/C (second compound 10 µM, first compound 1 µM) was 0.77%, the viability, T/C (second compound 10 µM, first compound 3.16 µM) was 1.81% and the viability, T/C (second compound 10 µM, first compound 10 µM) was 0.48%.
